Experimental findings from PMC4113814, “Bioactive Cembrane Derivatives from the Indian Ocean Soft Coral, Sinularia kavarattiensis” (Marine Drugs, 2014) are described below.

Converted amounts (≈) assume the structure as drawn.

The test system of one test is IL-10. Put plainly: IL-10 release in supernatants of LPS-treated primary microglial cells (ELISA). The class given is cell-based, Wistar rats. The settings on record: 72 h; for IL-10 release: LPS-treated; for IC50: Rattus norvegicus, inhibition of LPS-induced cytokine release, read-out: IL-10 IC50. The method, then:
(§1) Primary microglial cell cultures were prepared from brains of newborn Wistar rats. Ethics approval for the experiments was granted by the EBIOTEC Review Board (Valter Lombardi, Iván Carrera and Lucía Fernández-Novoa; Project Identification Code: Sinularia Project October 2013; approved 30 October 2013). The neocortex of one-day-old postnatal rats was aseptically dissected out, and the meninges and blood vessels were carefully removed. Following cutting in a medium containing 20% horse serum, the suspension was filtered through a […] and transferred as a single cell suspension to culture dishes, using 5.0 mL of medium per dish. The cultures were incubated at 37 °C in an atmosphere containing 5% CO2. The culture medium consisted of Minimum Essential Medium Eagle, supplemented with L-glutamine, amino acids, vitamins, penicillin, gentamicin, sodium bicarbonate and 20% heat-inactivated horse serum. The medium was changed twice a week. After 1 week, the concentration of horse serum was reduced to 10%. After sixteen days in culture, cells were treated with 1 μg/mL of lipopolysaccharide (LPS). […] Positive controls were treated only with LPS, while negative controls were treated with complete medium. After 72 h of incubation, cells were counted, and 2.5 mL of the supernatants were collected from each well and frozen at −40 °C for cytokine analyses. All experiments were carried out twice.
(§2) The supernatants obtained from cell cultures were analyzed for TNF-α, IL-1β, IL-4, IL-6, IL-8, IL-10 and IL-18 using commercially available ELISA kits following the manufacturers’ instructions. All samples were assayed in duplicate, and equivocal results were repeated. The cytokine concentration was calculated from a standard curve of the corresponding recombinant cytokine.
(§3) The cytotoxicity of the compounds was measured by the colorimetric methyl thiazol tetrazolium (MTT) assay and scored as a percentage of the absorbance reduction of treated cultures versus untreated control cultures. Primary microglial cell cultures were seeded into 96-well microplates at 10^4 cells per well and allowed to grow for 24 h. […] The compounds were serially diluted in complete culture medium with two-fold dilutions (100, 50, 25, 12.5, 6.25, 3.12 and 1.56 μg/mL for in vitro cytotoxicity; 12.5, 6.25, 3.12, 1.56, 0.78 and 0.39 μg/mL for cytokine release). Different concentrations of the compounds were added to each well, and Tamoxifen was used as a positive control, with concentrations ranging from 50 to 1.56 μg/mL. Plates were incubated at 37 °C for 72 h under 5% CO2 atmosphere. Then, the 50 μL of MTT-PBS solution in culture medium were added to each well. The plates were further incubated for 4 h under the same conditions. The medium was then removed and replaced with 200 μL of DMSO to solubilize the MTT formazan product. The solutions were shaken for 20 min, and the absorbance was measured at 570 nm. […] Each value represents the mean of triplicate determinations. The IC50 values were calculated from the compound concentration-response curves.
For orientation: An ELISA detects its analyte on a solid surface through an enzyme-linked reagent.

The test system of test [1] is CHIKV replicon. Put plainly: CHIKV replicon assay, Cell-IQ live cell imaging, EGFP fluorescence intensity. To be noted: 50 and 100 μM, 48 h.
For a further test, the system named is IL-4. Put plainly: IL-4 release in supernatants of LPS-treated primary microglial cells (ELISA). The class given is cell-based, Wistar rats. The settings on record: 72 h; for IL-4 release: LPS-treated; for IC50: Rattus norvegicus, inhibition of LPS-induced cytokine release, read-out: IL-4 IC50. The method, then: as §1, §2
as §3, with “The compounds were serially diluted in complete culture medium with two-fold dilutions (100, 50, 25, 12.5, 6.25, 3.12 and 1.56 μg/mL for in vitro cytotoxicity; 12.5, 6.25, 3.12, 1.56, 0.78 and 0.39 μg/mL for cytokine release).” left out

Another test relates to IL-1β. Put plainly: IL-1β release in supernatants of LPS-treated primary microglial cells (ELISA). The class given is cell-based, Wistar rats. The settings on record: 72 h; for IL-1β release: LPS-treated; for IC50: Rattus norvegicus, inhibition of LPS-induced cytokine release, read-out: IL-1β IC50. The method, then: as §1, §2, §3
The test system of a further test is TNF-α. Put plainly: TNF-α release in supernatants of LPS-treated primary microglial cells (ELISA). The class given is cell-based, Wistar rats. To be noted: 72 h; for TNF-α release: LPS-treated; for IC50: Rattus norvegicus, inhibition of LPS-induced cytokine release, read-out: TNF-α IC50. Here is the method: as §1, §2, §3
Test [2] concerns CHIKV replicon. Put plainly: microbe, parasite or virus in culture. The settings on record: Chikungunya virus, 48 h, read-out: inhibition of the CHIKV replicon (Rluc marker levels). On the technique in general: In antiviral work, replicon cells carry a viral genome segment that copies itself.
In the next test the test system is IL-8. Put plainly: IL-8 release in supernatants of LPS-treated primary microglial cells (ELISA). The class given is cell-based, Wistar rats. The settings on record: 72 h; for IL-8 release: LPS-treated; for IC50: Rattus norvegicus, inhibition of LPS-induced cytokine release, read-out: IL-8 IC50. Here is the method: as §1, §2, §3

As for `C=C(C)[C@@H]1C/C=C2\C(=O)O[C@@H](C[C@]3(C)CC(=O)[C@H](CC(=O)C1)O3)[C@@H]2O` [Compound 1, 5-epi-sinuleptolide], the IL-10 release in the test with IL-10 (C1: 1.0 μg/mL) stood at 7.6 ± 1.6 pg/mL; with IL-10 (C2: 2.5 μg/mL) it was 8.2 ± 1.8 pg/mL; with IL-10 (C3: 5.0 μg/mL), 8.7 ± 2.1 pg/mL. The IC50 in the test with IL-10, with IL-4, in the test with IL-1β, in the test with TNF-α and with IL-8 was over 12.5 µg/mL in each case. The “decrease in EGFP marker fluorescence intensity” value (“decrease” for short) in the test on CHIKV replicon [1] is “strongest decrease”. In addition, the IL-4 release is given as 1.9 ± 0.9 pg/mL in the test on IL-4 (C1: 1.0 μg/mL), 2.1 ± 0.8 pg/mL in the test on IL-4 (C2: 2.5 μg/mL) and 1.9 ± 0.4 pg/mL with IL-4 (C3: 5.0 μg/mL). Also, the results for the IL-1β release in the test with IL-1β (C1: 1.0 μg/mL), in the test with IL-1β (C2: 2.5 μg/mL) and with IL-1β (C3: 5.0 μg/mL) were 1.04 ± 0.08 pg/mL, 1.09 ± 0.1 pg/mL and 1.08 ± 0.05 pg/mL, respectively. The TNF-α release with TNF-α (C1: 1.0 μg/mL) is reported as 33.5 ± 11.2 pg/mL; with TNF-α (C2: 2.5 μg/mL), 31.2 ± 9.2 pg/mL; in the test on TNF-α (C3: 5.0 μg/mL), 33.6 ± 11.1 pg/mL. Also, the inhibition at 100 µM in the test on CHIKV replicon [2] was over 60%. The IL-8 release in the test with IL-8 (C1: 1.0 μg/mL) is on record as 256 ± 12 pg/mL; in the test with IL-8 (C2: 2.5 μg/mL), 239 ± 5 pg/mL; in the test on IL-8 (C3: 5.0 μg/mL), 241 ± 7 pg/mL.
For `C=C(C)C1CCC23OC2C(CC2(C)CC(=O)C(CC(=O)C1)O2)OC3=O` (stereo not shown) [Compound 3, scabrolide D], the IL-10 release with IL-10 (C1: 1.0 μg/mL) is 7.5 ± 1.4 pg/mL; in the test on IL-10 (C2: 2.5 μg/mL) it was 6.8 ± 1.5 pg/mL; with IL-10 (C3: 5.0 μg/mL) it was 6.9 ± 1.5 pg/mL. The IC50 in the test on IL-10, in the test on IL-4, in the test with IL-1β, in the test with TNF-α and with IL-8 was over 12.5 µg/mL in each case. For the same molecule, the “decrease” value in the test with CHIKV replicon [1] is “inactive”. Further, the IL-4 release in the test on IL-4 (C1: 1.0 μg/mL) is 1.5 ± 0.9 pg/mL; in the test on IL-4 (C2: 2.5 μg/mL) it was 1.6 ± 0.8 pg/mL; with IL-4 (C3: 5.0 μg/mL), 1.7 ± 0.5 pg/mL. The IL-1β release was 1.1 ± 0.05 pg/mL with IL-1β (C1: 1.0 μg/mL), 1.3 ± 0.06 pg/mL with IL-1β (C2: 2.5 μg/mL) and 1.2 ± 0.05 pg/mL in the test with IL-1β (C3: 5.0 μg/mL). Further, the TNF-α release with TNF-α (C1: 1.0 μg/mL) is on record as 33.6 ± 11.2 pg/mL; with TNF-α (C2: 2.5 μg/mL), 24.5 ± 6.9 pg/mL; with TNF-α (C3: 5.0 μg/mL), 35.4 ± 12.4 pg/mL. In addition, the inhibition at 100 µM in the test with CHIKV replicon [2] is 44%. In addition, the IL-8 release came to 247 ± 8 pg/mL with IL-8 (C1: 1.0 μg/mL), 237 ± 4 pg/mL in the test on IL-8 (C2: 2.5 μg/mL) and 244 ± 11 pg/mL in the test on IL-8 (C3: 5.0 μg/mL).
As to `C=C(C)[C@@H]1C/C=C2\C(=O)O[C@@H](C[C@]3(C)CC(=O)[C@@H](CC(=O)C1)O3)[C@@H]2O` [Compound 2, sinuleptolide], the IL-10 release with IL-10 (C1: 1.0 μg/mL) was 7.9 ± 3.4 pg/mL; in the test with IL-10 (C2: 2.5 μg/mL), 17.4 ± 2.3 pg/mL; in the test with IL-10 (C3: 5.0 μg/mL), 18.5 ± 1.9 pg/mL. In addition, the IC50 with IL-10 turned out to be 0.5 µg/mL (≈ 1.44 µM); in the test with IL-4, 0.5 µg/mL (≈ 1.44 µM); in the test on IL-1β it was 0.5 µg/mL (≈ 1.44 µM); with TNF-α, 1.7 µg/mL (≈ 4.88 µM); in the test on IL-8, 2.3 µg/mL (≈ 6.6 µM). In the test on CHIKV replicon [1], the “decrease” value is listed as “strongest decrease”. In addition, the IL-4 release came to 2.1 ± 0.9 pg/mL in the test on IL-4 (C1: 1.0 μg/mL), 15.5 ± 2.3 pg/mL in the test on IL-4 (C2: 2.5 μg/mL) and 18.4 ± 1.8 pg/mL in the test on IL-4 (C3: 5.0 μg/mL). In addition, the IL-1β release in the test with IL-1β (C1: 1.0 μg/mL) is on record as 1.08 ± 0.02 pg/mL; in the test with IL-1β (C2: 2.5 μg/mL), 0.07 ± 0.04 pg/mL; with IL-1β (C3: 5.0 μg/mL), 0.08 ± 0.06 pg/mL. Further, the TNF-α release in the test on TNF-α (C1: 1.0 μg/mL) came to 34.1 ± 9.1 pg/mL; in the test with TNF-α (C2: 2.5 μg/mL) it was 12.3 ± 3.4 pg/mL; in the test on TNF-α (C3: 5.0 μg/mL) it was 9.8 ± 3.3 pg/mL. In the test on CHIKV replicon [2], the inhibition at 100 µM is over 60%. Besides, the IL-8 release in the test on IL-8 (C1: 1.0 μg/mL) is 249 ± 13 pg/mL; in the test with IL-8 (C2: 2.5 μg/mL) it was 123 ± 11 pg/mL; in the test on IL-8 (C3: 5.0 μg/mL) it was 108 ± 9 pg/mL.
With `C=C(C)[C@@H]1CC(=O)[C@H]2[C@H](C1)[C@@H]1C(=O)O[C@@H]3C[C@@]4(C)O[C@H]2C(=O)[C@@H]4[C@H]13` [Compound 6, ineleganolide], the figures for the IL-10 release with IL-10 (C1: 1.0 μg/mL), in the test on IL-10 (C2: 2.5 μg/mL) and in the test with IL-10 (C3: 5.0 μg/mL) were 8.5 ± 3.2 pg/mL, 7.8 ± 2.2 pg/mL and 7.5 ± 2.1 pg/mL, respectively. Further, the IC50 in the test with IL-10, with IL-4, in the test on IL-1β, in the test on TNF-α and in the test on IL-8 was over 12.5 µg/mL throughout. Moreover, in the test with CHIKV replicon [1], the “decrease” value was “only moderate decreases”. The IL-4 release turned out to be 1.8 ± 0.6 pg/mL in the test with IL-4 (C1: 1.0 μg/mL), 1.9 ± 0.6 pg/mL in the test on IL-4 (C2: 2.5 μg/mL) and 1.9 ± 0.9 pg/mL in the test with IL-4 (C3: 5.0 μg/mL). The values for the IL-1β release in the test on IL-1β (C1: 1.0 μg/mL), in the test on IL-1β (C2: 2.5 μg/mL) and with IL-1β (C3: 5.0 μg/mL) were 1.07 ± 0.07 pg/mL, 1.1 ± 0.05 pg/mL and 1.09 ± 0.02 pg/mL, respectively. Also, the TNF-α release was 31.2 ± 2.9 pg/mL in the test on TNF-α (C1: 1.0 μg/mL), 30.6 ± 2.6 pg/mL in the test with TNF-α (C2: 2.5 μg/mL) and 32.3 ± 3.2 pg/mL with TNF-α (C3: 5.0 μg/mL). Further, the inhibition at 100 µM in the test on CHIKV replicon [2] was 0.5 to 63%. Besides, the IL-8 release in the test with IL-8 (C1: 1.0 μg/mL), with IL-8 (C2: 2.5 μg/mL) and in the test on IL-8 (C3: 5.0 μg/mL) was 247 ± 8 pg/mL in each case.

For orientation: IC50 means the midpoint of a concentration-inhibition curve. In general, inhibition refers to the share of the control response that was lost under treatment.
